Reference: publication PMC10916623, “Tissue distribution and pharmacokinetics of isoxanthohumol from hops in rodents” (Food Science & Nutrition, 2023)
“And” between values parts separate entries of the source, which are not always exact repeats. Identical values can stand only once. Like-named read-outs stand apart in the source and are kept apart here. Marks after values point to notes of the source that are not given here.

Experiments:
[1] = Plasma pharmacokinetics after single-gavage administration of IXA to mice; format: in vivo, C57/BL6 mice; conditions: for Cmax: mean ± SEM
Description: (§1) Six‐week‐old male C57/BL6 mice (initial BW: 19–24 g; Japan SLC, Shizuoka, Japan) were housed in a room maintained at 23–26°C with a 12‐h light–dark cycle. During the 1‐week acclimatization period, they were allowed free access to a commercial diet (Oriental Yeast Co., Tokyo, Japan) and water. Two days before the experiment, they were fed AIN‐93M (Oriental Yeast Co.). Before drug administration, they were fasted for 20 h, but had free access to water. IXA dissolved in 3% hydroxypropyl‐β‐cyclodextrin and 5% ethanol (Fujifilm; Wako Pure Chemical Corp., Osaka, Japan) was named the injection solution and administered (50 mg/kg BW) to mice intragastrically using a gastric feeding tube (AS ONE, Osaka, Japan). Blood, brain, thymus, heart, lung, liver, spleen, pancreas, kidney, and gastrocnemius muscle were collected 0.5, 1, 2, 4, 8, 12, 24, and 48 h after administration. We also set up a control group, and mice in this group were sacrificed just before we started administering IXA at 0 h. At 4 h after administration, mice were allowed free access to AIN‐93 M. Plasma was isolated by centrifugation at 17 × 10^3 m/s^2 (5911, Kubota, Tokyo, Japan) for 5 min at 4°C. All tissues were dissected, weighed, and immediately frozen in liquid nitrogen. All samples were stored at −80°C until analysis.
Plasma samples were deconjugated by β‐glucuronidase type H‐1 (which has β‐glucuronidase and sulphatase activity; Sigma, St. Louis, MO, USA; G0751) to convert aglycon from conjugated metabolites of IXA and 8‐PN, as described in a previous report (Y. Tanaka et al., [2022]). Briefly, 100 μL of plasma was mixed with 900 μL of 0.1 mol/L sodium acetate buffer (pH 4.7), 200 μL of 50 mmol/L ascorbic acid, and 1 mL of 1.67 μkat/100 μL of β‐glucuronidase type H‐1, and then incubated for 30 min at 37°C. Then, 2.4 nmol of QTM was added to the samples as the internal standard. The liberated aglycone was extracted using ethyl acetate (Kanto Kagaku, 14,029‐2B).
(§2) The plasma and tissue extracts were evaporated using a Centrifugal Evaporator (EYERA, Tokyo, Japan, CVE‐3000). The samples were stored at −80°C until the next day. Then, the samples were dissolved in 120 μL of a mobile phase solution and divided into two test tubes. The first sample was injected into the HPLC with an ultraviolet detection system (Shimadzu, Kyoto, Japan).
(§3) IXA and 8‐PN concentrations were determined by their respective standard curves using an internal standard method. A Cadenza 3‐μm CD‐C18 HPLC column (CD005, 150 × 4.6 mm; Imtakt Corporation, Kyoto, Japan) was equipped for HPLC (λ = 295 nm). The mobile phase consisted of methanol:water:acetic acid (60:35:5, v/v/v). The flow rate was set at 1.0 mL/min. […] Because clear peaks over 4.5 pmol/sample were detected for IXA and 8‐PN by visual evaluation, we determined that these concentrations were the peak limit of detections for each flavonoid. We applied calibration curves in the IXA/QTM concentration ratio range of 0.007–35.1 (R ^2 = .9955).

[2] = Tissue distribution after single-gavage administration of IXA to mice; format: in vivo, C57/BL6 mice; conditions: mice; for IXA accumulation, single-ingestion test (at 24 h): single IXA 50 mg/kg BW
Description: as §1
Tissue sample deconjugation was performed as described in a previous report with slight modifications (Tanaka et al., [2022]). Tissues were homogenized in phosphate‐buffered saline (pH 7.4), which was nine times the tissue volume. The tissue homogenate was incubated in 50 mmol/L ascorbic acid (one‐fifth the volume of phosphate‐buffered saline) and 1.67 μkat/100 μL of β‐glucuronidase type H‐1 in 0.1 mol/L sodium acetate buffer (pH 4.7, nine times the volume of the sample) for 2 h at 37°C. Then, 2.4 nmol of QTM was added to samples as an internal standard. The supernatant was isolated by centrifugation at 17 × 10^3 m/s^2 (Kubota) for 5 min at 4°C. Then, methanol (Kanto Kagaku, 25183‐2B) was added to the pellets, and they were shaken for 1 min. The methanol layer and pellets were separated by centrifugation at 17 × 10^3 m/s^2 (Kubota, RY1071‐A000) for 5 min at 4°C. Methanol extraction was repeated three times. Finally, methanol extracts were mixed with the supernatant (the composition of the mixture was 30% methanol) and then applied to an Inert Sep C8 (200 mg/3 mL; GL Sciences, Tokyo, Japan; 5010‐61082) cartridge. The cartridge was preconditioned with 6 mL of 2% acetic acid in methanol, and then 9 mL of 2% acetic acid in water. The extracted tissue was passed through the cartridge, and it was washed with 5 mL of 2% acetic acid in 30% methanol aq. The flavonoids were eluted with 10 mL of 2% acetic acid in methanol.
as §2, §3

[3] = single oral IXA 50 mg/kg BW, plasma
[4] = kidney, single oral IXA 50 mg/kg BW
[5] = lung, single oral IXA 50 mg/kg BW

## 4,7‐dihydroxy‐5‐methoxy‐8‐prenylflavanone [IXA]
[1]; plasma, single IXA 50 mg/kg BW, 24 h
  IXA accumulation, single-ingestion test (at 24 h): 0.2 ± 0.1 μmol/L of plasma
[1]; plasma, single oral IXA 50 mg/kg BW
  time at which IXA was increased further: 8 h
[1]; single oral IXA 50 mg/kg BW, 48 h
  IXA in plasma at 48 h after administration: not detected
[1]; [3]
  T 1/2 (half-life in the mean elimination phase): 1.43 h and 1.4 h
  time until which detected in plasma after ingestion: 24 h
[1]; single oral IXA 50 mg/kg BW, plasma, at 0.5 h, read-out: plasma maximum concentration (C max)
  Cmax: 3.95 ± 0.81 µM
[1]; single oral IXA 50 mg/kg BW, plasma, calculated using the mean at each time point
  AUC24h: 18.2 µM·h
[1]; single oral IXA 50 mg/kg BW, plasma, read-out: C max
  Cmax: 4 ± 0.8 µM
[2]; brain, single oral IXA 50 mg/kg BW, data not shown
  IXA detection in the brain: not detected
[2]; heart, single oral IXA 50 mg/kg BW
  time of second peak of IXA: 4 h
[2]; heart, single oral IXA 50 mg/kg BW, measured at 0.5 h
  C max IXA: 3.3 ± 1.0^b,c nmol/g of tissue
[2]; kidney
  IXA accumulation, single-ingestion test (at 24 h): 4.6 ± 0.3 nmol/g of tissue
[2]; [4]
  time of second peak of IXA: 8 h
  IXA level at 48 h after ingestion: 2.67 ± 0.41 nmol/g tissue
[2]; kidney, single oral IXA 50 mg/kg BW, measured at 1 h
  C max IXA: 25.5 ± 5.3^a,b nmol/g of tissue
[2]; liver
  IXA accumulation, single-ingestion test (at 24 h): 3.2 ± 1.3 nmol/g of tissue
[2]; liver, single oral IXA 50 mg/kg BW
  IXA level at 48 h after ingestion: 0.14 ± 0.12 nmol/g tissue
[2]; liver, single oral IXA 50 mg/kg BW, measured at 1 h
  C max IXA: 76.2 ± 32.4^a nmol/g of tissue
[2]; lung
  IXA accumulation, single-ingestion test (at 24 h): 1.7 ± 1.5 nmol/g of tissue
[2]; [5]
  time of second peak of IXA: 2 h
  IXA level at 48 h after ingestion: 0.05 ± 0.04 nmol/g tissue
[2]; lung, single oral IXA 50 mg/kg BW, measured at 0.5 h
  C max IXA: 5.3 ± 3.3^b,c nmol/g of tissue
[2]; muscle
  IXA accumulation, single-ingestion test (at 24 h): 0.1 ± 0.1 nmol/g of tissue
[2]; muscle, single oral IXA 50 mg/kg BW, measured at 0.5 h
  C max IXA: 3.4 ± 1.3^b,c nmol/g of tissue
[2]; pancreas, single oral IXA 50 mg/kg BW
  time of second peak of IXA: 12 h
[2]; pancreas, single oral IXA 50 mg/kg BW, measured at 0.5 h
  C max IXA: 22.4 ± 2.1^b,c nmol/g of tissue
[2]; skeletal muscle, single oral IXA 50 mg/kg BW
  time of second peak of IXA: 12 h
[2]; spleen
  IXA accumulation, single-ingestion test (at 24 h): 1.1 ± 1.0 nmol/g of tissue
[2]; spleen, single oral IXA 50 mg/kg BW
  time of second peak of IXA: 4 h
[2]; spleen, single oral IXA 50 mg/kg BW, measured at 0.5 h
  C max IXA: 6.5 ± 2.2^b,c nmol/g of tissue
[2]; thymus
  IXA accumulation, single-ingestion test (at 24 h): 3.6 ± 3.1 nmol/g of tissue
[2]; thymus, single oral IXA 50 mg/kg BW
  time of second peak of IXA: 4 h
[2]; thymus, single oral IXA 50 mg/kg BW, measured at 0.5 h
  C max IXA: 6.5 ± 4.1^b,c nmol/g of tissue
